The text below walks through data of patent publication EP4751721A1, “COMPOSITION CONTAINING NOVEL COMPOUND FOR PREVENTING OR TREATING PARKINSON'S DISEASE” (PRG S&Tech Inc., priority 2023, dated 2025).

In one data set the target is T1, Syn-A53T (Homo sapiens, UniProt P37840, A53T).
T1 construct: FLAG; host or cells: SK-N-SH
In words: Immunofluorescence staining of aggregated synuclein in transfected cells. In kind it is cell-based. The following applies: Syn-A53T vector 24 h, compound 5 µM for 24 h, pan-Syn antibody, FIG. 1C.

A further data set concerns normal human fibroblasts. In words: Cell viability (MTT assay) in normal human fibroblasts. In kind it is cell-based. To be noted: 48 h; for cytotoxic effects (cell viability, MTT): normal human fibroblasts, FIG. 3. The procedure: SK-N-SH cells were purchased from the Korean Cell Line Bank (KCLB, Seoul, South Korea) and maintained in MEM medium containing 10% fetal bovine serum, 1% antibiotics, 25 mM HEPES, and 300 mg/L L-Glu. Human fibroblasts (person) were obtained from Coridll Cell Repositories (New Jersey, USA) and maintained in EMEM containing 15% FBS and 2 mM glutamine, along with 26 mM HEPES without antibiotics.
To investigate cell viability, cells were treated with chemicals (PRG-A compound) for 48 h. Then, the cells were incubated with 0.5 mg/ml 3-(4,5-dimethylthiazol-2-yl)-2,5-diphenyltetrazolium bromide (MTT) solution (475989; Merck, Darmstadt, Germany) at 37°C for 4 h. After removing the excess solution and washing with PBS, the precipitated substances were dissolved in 200 µl of DMSO and quantified by measuring the absorbance at 540 nm.
Lastly, to determine the toxicity of PRG-A compounds, normal human fibroblasts and neuroblastoma cells (SK-N-SH) were cultured with each compound for 48 h, and cell viability was measured via the MTT assay. The effect on survival rates of neuronal cells and normal fibroblasts was identified (FIG. 3).
In general terms: Tetrazolium dyes change colour on reduction, which living cells bring about.

In a further data set the test system is Syn^A53T-Tg mice. The experiment in a line: In vivo treatment and histological analysis in Parkinson's disease (PD) mouse model. The procedure:
Experiments were conducted in approved facility of Association for Assessment and Accreditation of Laboratory Animal Care in accordance with animal policies approved by Pusan National University. B6.Cg-Tg (Prnp-SNCAA53T)/J mice were obtained from Jackson Laboratory (Stock No: 006823). All mice were maintained under temperature- and light-controlled conditions (20-23°C, 12 h-12 h light/dark cycle) and provided with autoclaved food and water.
24 week-old Syn^A53T-Tg mice were administered vehicle (DMSO), PRG-A-03, and PRG-A-04 intraperitoneally twice a week for 24 to 26 weeks. Control mice were treated under the same conditions. Mice were sacrificed at 48-52 weeks of age for histological analysis. After cardiac perfusion with 4% paraformaldehyde, the brains were dissected and embedded in paraffin blocks according to standard tissue processing procedures. Embedded tissue ([…]) was cut into 5 µm sections using a tissue sectioner (Leica microtome) and transferred to adhesive-coated slides (Marienfeld laboratory glassware, Germany). For histological pathologic analysis of Syn^A53T-Tg mice, immunohistochemistry (IHC) using a dopaminergic neuronal marker (Tyrosine Hydroxylase) was performed after deparaffinization and rehydration. To monitor dopaminergic neurons by immunofluorescence (IF), dissected brains were embedded in agarose holders and sectioned with a vibratome. Thinly sliced tissues were treated with a blocking solution (normal donkey serum diluted 1:500 in 0.1% Triton X-100 PBS) for 1 h. Cells were incubated with anti-TH antibody (diluted 1:500) overnight at 4°C. Finally, cells were incubated with FITC-conjugated secondary antibody at 4°C for 2 h. Cells were washed three times with PBS, and coverslips were mounted using mounting solution (H-5501, Vector Laboratories), followed by analysis by fluorescence microscopy (Zeiss). […]

Data set [1] addresses T2, synuclein mutant (Syn-A53T) (Homo sapiens, UniProt P37840, A53T).
T2 construct: FLAG; host or cells: SK-N-SH
The experiment in a line: Insoluble/soluble synuclein fractionation by Western blot in SK-N-SH cells transfected with MT-Syn (Syn-A53T). In kind it is cell-based. The following applies: treated for 24 h, pellet (insoluble) vs supernatant, FIG. 1B. The procedure:
For SDS-PAGE, proteins were extracted from cells using RIPA buffer (50 mM Tris-Cl, pH 7.5, 150 mM NaCl, 1% NP-40, 0.1% SDS, and […] sodium deoxycholate). Samples were separated by SDS-PAGE and transferred to a PVDF membranes. The blotted membrane was blocked with 3% skim milk containing TBST buffer for 1 h and incubated with specific antibodies. Reacted antibodies were detected by ECL and X-ray film exposure. The antibody used in this experiment was pan-Syn (GTX112799), purchased from Genetex (California, USA). Actin antibody (66009-1-lg) and α-tubulin antibody (66240-1-lg) were obtained from Proteintech (Rosemont, IL, USA). Anti-FLAG (Sigma; F3165) from Sigma Aldrich (St, Louis, MO, USA) was used as a […], and HRP-conjugated goat anti-mouse, goat anti-rabbit, and mouse anti-goat antibodies (Pierce, Thermo Fisher Scientific, Inc., Rockford, IL, USA) were used. FLAG-Syn-WT and MT vectors were transfected into SK-N-SH cells for 24 h. […]
To identify the effect of the PRG-A compound on alpha-synuclein aggregation, the inventors transfected the FLAG-Syn-A30P vector into SK-N-SH cells for 24 h. […] Expression of synuclein was observed under a fluorescence microscope with a pan-Syn antibody (white arrow; high intensity of Syn).
(In general: A western blot detects proteins with antibodies after separation by electrophoresis.)

As to `CC1(C)Oc2cc3oc(=O)ccc3cc2C[C@@H]1O` [Chem-001, decursinol], the “Aggregated synuclein (immunofluorescence)” value on Syn-A53T is given as “marginal effects”.

As to `COc1cc(/C=C/C(=O)O[C@H]2Cc3cc4ccc(=O)oc4cc3OC2(C)C)ccc1O` [PRG-A-01, (S)-8,8-dimethyl-2-oxo-7,8-dihydro-2H,6H-pyrano[3,2-g]chromen-7-yl (E)-3-(4-hydroxy-3-methoxyphenyl)acrylate], the “cytotoxic effects (cell viability, MTT)” value with normal human fibroblasts was “did not exhibit cytotoxic effects”.

As to `COc1cc(/C=C/CO[C@H]2Cc3cc4ccc(=O)oc4cc3OC2(C)C)ccc1O` [PRG-A-02, (S,E)-7-((3-(4-hydroxy-3-methoxyphenyl)allyl)oxy)-8,8-dimethyl-7,8-dihydro-2H,6H-pyrano[3,2-g]chromen-2-one], the “cytotoxic effects (cell viability, MTT)” value in the data set with normal human fibroblasts was “did not exhibit cytotoxic effects”.

Regarding `CC1(C)Oc2cc3oc(=O)ccc3cc2C[C@@H]1OC(=O)/C=C/c1ccc(F)cc1` [PRG-A-03, (S)-8,8-dimethyl-2-oxo-7,8-dihydro-2H,6H-pyrano[3,2-g]chromen-7-yl (E)-3-(4-fluorophenyl)acrylate], the “impact on cell viability (MTT)” value in the data set on normal human fibroblasts (high doses (50 and 100 µM), cell type not given) is reported as “low impact on cell viability”. Besides, the “phosphorylation of Tau in brain tissue” value in the data set on Syn^A53T-Tg mice (brain tissue of Syn-A53T Tg, FIG. 2C) is listed as “suppresses phosphorylation of Tau”. For the same compound, the “Dopaminergic neuron markers (Tyrosine Hydroxylase, TH) in the substantia nigra (SN), IHC” value in the data set with Syn^A53T-Tg mice (intraperitoneal, 20 mg/kg or 40 mg/kg, 24 to 26 weeks, FIG. 2B) was “maintained”.

Take `COc1cc(/C=C/CO[C@H]2Cc3cc4ccc(=O)oc4cc3OC2(C)C)ccc1[N+](=O)[O-]` [PRG-A-04, (S,E)-7-((3-(3-methoxy-4-nitrophenyl)allyl)oxy)-8,8-dimethyl-7,8-dihydro-2H,6H-pyrano[3,2-g]chromen-2-one]: the “cytotoxic effects (cell viability, MTT)” value in the data set with normal human fibroblasts was “did not exhibit cytotoxic effects”. Further, the insoluble synuclein entry in data set [1] is “reduce insoluble synuclein in a dose-dependent manner”. Besides, the “loss of dopaminergic neurons in the SN by IF staining using TH” value in the data set with Syn^A53T-Tg mice (intraperitoneal, 20 mg/kg or 40 mg/kg, 24 to 26 weeks, FIG. 2D) is “prevents the loss of dopaminergic neurons”.
